Measurements: the supplement of paper PMC10307832

Tests used:
Experiment in all cases: relative viability (nuclei count vs DMSO), 5 days (fraction); higher = more cells survive
[1] = compound: C1=CC2=C(C=CC(=C2)C=C3C(=O)NC(=NCC4=CC=CS4)S3)N=C1 [RO-3306] + CC(=O)c1c(C)c2cnc(Nc3ccc(N4CCNCC4)cn3)nc2n(C2CCCC2)c1=O [Palbociclib] (partner 0.5 µM)
Method in brief: (§1)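 Lung cancer cell lines in 1536-well plates were dosed by pin tool the day after seeding, either with one drug alone or with a fixed anchor-drug dose plus five library-drug doses (not always all listed) in √10 steps. After 5 days, cells were fixed and their nuclei stained in one step (final 0.05% Triton X-100, 1% formaldehyde, 1 ug/ml Hoechst), then counted on 4× images. Relative viability is the nuclei count in treated wells divided by that in vehicle wells. Values are medians of duplicate plates.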

[2] = compound: C1=CC2=C(C=CC(=C2)C=C3C(=O)NC(=NCC4=CC=CS4)S3)N=C1 [RO-3306] + CS(=O)(=O)CCNCc1ccc(-c2ccc3ncnc(Nc4ccc(OCc5cccc(F)c5)c(Cl)c4)c3c2)o1 [Lapatinib] (partner 2 µM)
Method in brief: as §1

[3] = compound: O=S(=O)(c1ccccc1)N(CC(F)(F)F)c1ccc(C(O)(C(F)(F)F)C(F)(F)F)cc1 + CC(C)C[C@H](NC(=O)[C@H](Cc1ccccc1)NC(=O)c1cnccn1)B(O)O [Bortezomib] (partner 0.002 µM)
Method in brief: as §1

[4] = compound: O=S(=O)(c1ccccc1)N(CC(F)(F)F)c1ccc(C(O)(C(F)(F)F)C(F)(F)F)cc1 + CS(=O)(=O)CCNCc1ccc(-c2ccc3ncnc(Nc4ccc(OCc5cccc(F)c5)c(Cl)c4)c3c2)o1 [Lapatinib] (partner 2 µM)
Method in brief: as §1

[5] = compound: O=S(=O)(c1ccccc1)N(CC(F)(F)F)c1ccc(C(O)(C(F)(F)F)C(F)(F)F)cc1 + CS(=O)(=O)N1CCN(Cc2cc3nc(-c4cccc5[nH]ncc45)nc(N4CCOCC4)c3s2)CC1 [Pictilisib] (partner 1 µM)
Method in brief: as §1

Cell Line	relative viability ([1]; first compound 0.01 µM)	relative viability ([1]; first compound 0.03162 µM)	relative viability ([1]; first compound 0.1 µM)	relative viability ([1]; first compound 0.3162 µM)	relative viability ([1]; first compound 1 µM)	relative viability ([2]; first compound 0.01 µM)	relative viability ([2]; first compound 0.03162 µM)	relative viability ([2]; first compound 0.1 µM)	relative viability ([2]; first compound 0.3162 µM)	relative viability ([2]; first compound 1 µM)	relative viability ([3]; first compound 0.8 µM)	relative viability ([3]; first compound 2.53 µM)	relative viability ([3]; first compound 8 µM)	relative viability ([4]; first compound 0.8 µM)	relative viability ([4]; first compound 2.53 µM)	relative viability ([4]; first compound 8 µM)	relative viability ([5]; first compound 0.8 µM)	relative viability ([5]; first compound 2.53 µM)	relative viability ([5]; first compound 8 µM)
RERF-LC-KJ	1.27	0.993	1.16	1.1	1.08	0.861	0.842	0.828	0.864	0.702	1.12	0.95	1.02	0.828	0.715	0.693	0.557	0.453	0.5
HARA	0.207		0.265	0.24	0.311	0.763	0.627	0.758	0.687	0.535	1.12	1.04	1.04	0.642	0.575	0.552	0.43	0.317	0.293
NCI-H838	0.228	0.211	0.254	0.254	0.193	1.02	0.6	0.951	1.08	0.902	0.907	0.863	0.906	1.23	0.947	1.06	0.46	0.403	0.642
NCI-H1792	0.688		0.653	0.708	0.698	0.971		0.881	0.903	0.499	0.973	0.842	0.737	0.932	0.783	0.665	0.191	0.184	0.165
NCI-H727	0.623	0.613	0.552	0.557	0.604	0.869	0.647	0.789	0.845	0.972	1.23	0.762	0.737	0.844	0.646	0.738	0.758	0.261	0.353
BEN	0.49	0.438	0.458	0.473	0.476	0.726	0.759	0.754	0.8	0.744	0.843	0.844	0.866	0.67	0.684	0.629	0.585	0.533	0.616
NCI-H1437	0.312	0.316	0.294	0.317	0.289	0.835	0.543	0.788	0.794	0.772	0.485	0.423	0.588	0.861	0.651	0.622	0.374	0.327	0.412
SK-LU-1	0.365	0.366	0.382	0.336	0.355	1.07	0.812	0.842	0.902	0.797	1.09	1.04	1.38	0.903	1.02	0.753	0.531	0.454	0.594
